SMILES strings stand for the structures.

Series [1] deals with T1, 5-hydroxytryptamine receptor 1A (Homo sapiens, UniProt P08908).
T1 sequence (P08908 whole entry): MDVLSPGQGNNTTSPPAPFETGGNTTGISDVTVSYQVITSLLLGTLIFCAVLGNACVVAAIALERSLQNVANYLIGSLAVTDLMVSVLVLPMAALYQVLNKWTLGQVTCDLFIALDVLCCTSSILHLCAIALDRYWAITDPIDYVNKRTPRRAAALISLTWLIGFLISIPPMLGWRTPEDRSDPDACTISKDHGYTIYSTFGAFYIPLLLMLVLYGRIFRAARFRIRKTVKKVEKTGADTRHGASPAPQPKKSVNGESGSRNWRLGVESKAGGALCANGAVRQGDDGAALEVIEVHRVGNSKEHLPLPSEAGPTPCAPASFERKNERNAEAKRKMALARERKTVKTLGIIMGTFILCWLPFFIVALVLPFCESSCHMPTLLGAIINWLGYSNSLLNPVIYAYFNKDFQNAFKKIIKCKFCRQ
Description: Antagonist activity at human 5HT1A receptor expressed in CHO cells assessed as stimulation of [35S]GTPgammaS binding

The target of a further series is Cytochrome P450 2D6 (Homo sapiens, UniProt P10635). Put plainly: Inhibition of CYP2D6 in human liver microsomes upto100 uM. In kind it is ADME, Microsome.
Chain of Cytochrome P450 2D6 (P10635 whole entry): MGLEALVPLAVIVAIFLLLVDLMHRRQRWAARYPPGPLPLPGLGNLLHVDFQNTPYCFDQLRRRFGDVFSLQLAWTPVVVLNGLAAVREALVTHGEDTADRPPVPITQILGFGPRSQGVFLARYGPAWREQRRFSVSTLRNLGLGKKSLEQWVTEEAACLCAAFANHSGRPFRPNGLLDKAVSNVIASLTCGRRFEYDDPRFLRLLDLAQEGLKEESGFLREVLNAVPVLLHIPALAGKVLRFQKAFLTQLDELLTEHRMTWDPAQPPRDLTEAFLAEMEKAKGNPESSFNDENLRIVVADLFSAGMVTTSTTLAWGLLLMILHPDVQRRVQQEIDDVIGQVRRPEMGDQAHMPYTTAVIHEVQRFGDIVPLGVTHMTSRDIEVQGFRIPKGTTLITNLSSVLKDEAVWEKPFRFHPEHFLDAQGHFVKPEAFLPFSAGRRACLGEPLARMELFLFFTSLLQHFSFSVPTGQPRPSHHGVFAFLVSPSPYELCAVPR
The nature of series [2]: AUC in rat at 10 mg/kg, po. The format is ADME, organism-based. Also on record: dose 10 mg/kg, route oral. The note with it: plasma.
The next series concerns the target D(3) dopamine receptor (Homo sapiens, UniProt P35462). Put plainly: Displacement of [3H]spiperone from human dopamine D3 receptor expressed in CHO cells. In kind it is cell-based. (In general: Loss of bound radioactivity is the signal in a displacement assay; it reports binding, not function.)
A short description of series [3]: Tmax in rat at 3 mg/kg, po. Also on record: dose 3 mg/kg, route oral. As to conditions: in vivo; call rule not given here. In kind it is ADME, organism-based.
The next series concerns the target Cytochrome P450 2C19 (Homo sapiens, UniProt P33261). Put plainly: Inhibition of CYP2C19 in human liver microsomes. The format is ADME, Microsome. Background: Liver microsomes are a subcellular fraction often used to study metabolism.
The next series concerns the target T2, D(4) dopamine receptor (Homo sapiens, UniProt P21917).
T2 sequence (P21917 whole entry): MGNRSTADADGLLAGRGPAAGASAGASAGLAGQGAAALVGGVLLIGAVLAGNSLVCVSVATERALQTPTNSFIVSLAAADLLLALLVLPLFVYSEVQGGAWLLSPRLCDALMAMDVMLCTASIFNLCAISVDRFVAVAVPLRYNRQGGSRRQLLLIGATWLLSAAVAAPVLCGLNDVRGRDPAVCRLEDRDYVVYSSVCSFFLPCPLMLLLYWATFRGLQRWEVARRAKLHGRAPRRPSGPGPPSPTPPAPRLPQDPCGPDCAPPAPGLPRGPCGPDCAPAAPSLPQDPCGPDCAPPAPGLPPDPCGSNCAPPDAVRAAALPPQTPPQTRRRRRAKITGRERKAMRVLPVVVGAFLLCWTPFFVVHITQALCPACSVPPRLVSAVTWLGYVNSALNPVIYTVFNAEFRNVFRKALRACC
The series can be described thus: Displacement of [3H]spiperone from human dopamine D4 receptor expressed in CHO cells. In kind it is cell-based.

Series [4] deals with Rattus norvegicus. Put plainly: Antidepressant like activity in sc dosed rat resident-intruder model assessed as reduction of aggressive behavior level administered 30 mins prior to test. In kind it is functional.
A short description of series [5]: Oral bioavailability in rat at 3 mg/kg. The format is ADME, organism-based. As to conditions: in vivo.
For the next series, the target named is Cytochrome P450 2C9 (Homo sapiens, UniProt P11712). The series can be described thus: Inhibition of CYP2C9 in human liver microsomes. The format is ADME, Microsome.
Chain of Cytochrome P450 2C9 (P11712 whole entry): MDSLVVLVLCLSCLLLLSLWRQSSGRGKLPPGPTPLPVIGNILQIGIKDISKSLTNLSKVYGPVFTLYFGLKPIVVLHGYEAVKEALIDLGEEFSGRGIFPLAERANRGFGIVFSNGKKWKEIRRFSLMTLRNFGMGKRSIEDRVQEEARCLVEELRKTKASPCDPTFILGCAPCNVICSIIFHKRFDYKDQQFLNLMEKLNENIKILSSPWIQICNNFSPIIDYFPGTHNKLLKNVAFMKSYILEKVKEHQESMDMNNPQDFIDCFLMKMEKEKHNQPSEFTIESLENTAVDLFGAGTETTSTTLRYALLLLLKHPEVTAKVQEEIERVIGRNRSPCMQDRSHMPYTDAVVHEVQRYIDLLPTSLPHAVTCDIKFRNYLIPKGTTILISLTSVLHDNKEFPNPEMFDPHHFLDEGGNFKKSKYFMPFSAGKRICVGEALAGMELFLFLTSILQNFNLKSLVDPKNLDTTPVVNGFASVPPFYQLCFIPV
In series [6] the target is T3, Adrenergic receptor alpha-1 (Rattus norvegicus, UniProt P15823+P23944+P43140).
T3 sequence (P15823 whole entry): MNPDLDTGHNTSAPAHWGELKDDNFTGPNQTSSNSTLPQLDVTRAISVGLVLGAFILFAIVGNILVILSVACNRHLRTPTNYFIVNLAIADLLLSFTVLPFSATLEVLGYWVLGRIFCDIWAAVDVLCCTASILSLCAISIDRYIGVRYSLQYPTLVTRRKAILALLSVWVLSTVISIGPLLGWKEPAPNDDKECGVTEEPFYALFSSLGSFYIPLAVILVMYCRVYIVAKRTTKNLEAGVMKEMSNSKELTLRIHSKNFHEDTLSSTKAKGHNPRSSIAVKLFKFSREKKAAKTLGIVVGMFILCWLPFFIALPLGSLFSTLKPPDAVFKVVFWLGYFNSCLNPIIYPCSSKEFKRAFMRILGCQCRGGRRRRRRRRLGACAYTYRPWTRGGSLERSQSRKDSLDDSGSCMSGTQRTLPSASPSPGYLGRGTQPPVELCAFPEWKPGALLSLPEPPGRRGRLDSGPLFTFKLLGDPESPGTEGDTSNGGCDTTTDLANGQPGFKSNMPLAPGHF
T3 sequence (P23944 whole entry): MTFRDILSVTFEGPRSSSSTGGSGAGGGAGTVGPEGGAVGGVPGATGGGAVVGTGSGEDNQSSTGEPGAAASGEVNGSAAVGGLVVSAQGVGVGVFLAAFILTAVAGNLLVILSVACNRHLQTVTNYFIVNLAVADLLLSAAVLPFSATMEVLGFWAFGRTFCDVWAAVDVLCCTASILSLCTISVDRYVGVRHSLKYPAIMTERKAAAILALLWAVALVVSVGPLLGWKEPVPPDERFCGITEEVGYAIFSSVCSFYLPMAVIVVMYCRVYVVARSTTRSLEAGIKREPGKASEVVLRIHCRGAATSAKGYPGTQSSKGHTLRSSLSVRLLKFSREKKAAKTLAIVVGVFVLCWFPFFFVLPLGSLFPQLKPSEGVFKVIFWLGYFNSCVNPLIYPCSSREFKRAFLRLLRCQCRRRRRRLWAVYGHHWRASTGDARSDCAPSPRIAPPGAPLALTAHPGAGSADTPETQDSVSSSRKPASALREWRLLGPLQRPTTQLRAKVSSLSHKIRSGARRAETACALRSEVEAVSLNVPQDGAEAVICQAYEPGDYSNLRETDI
T3 sequence (P43140 whole entry): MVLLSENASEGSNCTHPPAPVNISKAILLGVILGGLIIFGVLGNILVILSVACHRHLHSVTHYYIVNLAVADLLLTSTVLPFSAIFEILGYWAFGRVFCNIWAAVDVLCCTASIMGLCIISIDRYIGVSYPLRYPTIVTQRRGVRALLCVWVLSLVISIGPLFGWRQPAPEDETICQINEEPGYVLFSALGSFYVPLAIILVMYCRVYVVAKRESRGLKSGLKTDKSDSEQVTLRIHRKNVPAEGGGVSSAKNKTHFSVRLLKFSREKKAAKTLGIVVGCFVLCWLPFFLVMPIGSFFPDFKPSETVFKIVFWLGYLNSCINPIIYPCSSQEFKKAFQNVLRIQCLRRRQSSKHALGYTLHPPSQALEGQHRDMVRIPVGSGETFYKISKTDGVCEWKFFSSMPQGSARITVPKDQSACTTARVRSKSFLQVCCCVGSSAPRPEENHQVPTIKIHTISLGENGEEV
Put plainly: Displacement of [3H]prazosin from alpha1 adrenergic receptor in rat cortical membranes. In kind it is cell membranes, Membrane.

Series [7] in a line: AUC in rat at 3 mg/kg, po. In kind it is ADME, organism-based. Also noted: dose 3 mg/kg, route oral. As to conditions: plasma.
In the next series the target is D(2) dopamine receptor (Homo sapiens, UniProt P14416). The series can be described thus: Displacement of [3H]spiperone from human dopamine D2 receptor expressed in CHO cells. The format is cell-based.
Chain of D(2) dopamine receptor (P14416 whole entry): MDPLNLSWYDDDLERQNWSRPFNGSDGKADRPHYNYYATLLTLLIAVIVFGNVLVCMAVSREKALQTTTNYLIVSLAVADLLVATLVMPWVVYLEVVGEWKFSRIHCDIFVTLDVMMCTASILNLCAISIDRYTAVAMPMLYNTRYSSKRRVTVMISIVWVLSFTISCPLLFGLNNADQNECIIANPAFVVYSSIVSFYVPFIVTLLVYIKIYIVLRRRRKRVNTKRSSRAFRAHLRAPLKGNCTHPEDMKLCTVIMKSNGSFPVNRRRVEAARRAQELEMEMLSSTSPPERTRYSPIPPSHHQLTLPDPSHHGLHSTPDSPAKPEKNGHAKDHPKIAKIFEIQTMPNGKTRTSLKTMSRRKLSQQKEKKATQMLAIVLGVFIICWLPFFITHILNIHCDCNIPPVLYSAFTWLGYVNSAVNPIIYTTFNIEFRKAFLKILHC
Series [8] deals with Rattus norvegicus. Put plainly: Antidepressant activity in rat assessed as increase in extracellular 5HT level in dorsal lateral frontal cortex at 30 mg/kg, po after 3 hrs by microdialysis assay relative to basal level. In kind it is functional.

Chain of D(3) dopamine receptor (P35462 whole entry): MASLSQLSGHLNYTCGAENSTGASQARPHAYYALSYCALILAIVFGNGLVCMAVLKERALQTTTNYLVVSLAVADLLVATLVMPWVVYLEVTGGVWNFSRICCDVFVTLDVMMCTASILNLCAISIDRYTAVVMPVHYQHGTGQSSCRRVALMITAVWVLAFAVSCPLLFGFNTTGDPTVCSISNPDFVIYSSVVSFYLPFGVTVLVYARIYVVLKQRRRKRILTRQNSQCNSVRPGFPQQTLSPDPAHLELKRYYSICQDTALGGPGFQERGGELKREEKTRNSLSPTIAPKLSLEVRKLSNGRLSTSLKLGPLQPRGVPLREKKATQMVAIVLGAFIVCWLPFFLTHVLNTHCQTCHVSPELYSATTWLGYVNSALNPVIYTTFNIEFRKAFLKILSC
Chain of Cytochrome P450 2C19 (P33261 whole entry): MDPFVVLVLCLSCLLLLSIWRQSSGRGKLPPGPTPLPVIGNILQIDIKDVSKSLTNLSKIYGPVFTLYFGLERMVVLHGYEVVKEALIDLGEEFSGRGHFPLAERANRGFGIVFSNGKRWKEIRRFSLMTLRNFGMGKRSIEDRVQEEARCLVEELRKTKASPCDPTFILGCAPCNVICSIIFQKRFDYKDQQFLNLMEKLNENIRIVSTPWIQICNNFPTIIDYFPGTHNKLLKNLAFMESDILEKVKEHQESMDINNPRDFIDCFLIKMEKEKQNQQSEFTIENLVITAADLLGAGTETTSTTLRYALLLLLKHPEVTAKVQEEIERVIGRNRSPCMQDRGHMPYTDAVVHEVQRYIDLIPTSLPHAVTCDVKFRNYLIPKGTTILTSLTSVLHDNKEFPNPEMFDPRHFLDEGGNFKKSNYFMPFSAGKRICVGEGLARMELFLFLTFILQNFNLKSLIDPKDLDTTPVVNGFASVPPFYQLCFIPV

As to `Cc1ccc2c3c(ccc2n1)OC[C@H](CN1CCN(c2ccc4cc(C#N)ccc4n2)CC1)O3`, the concentration for half-maximal inhibition (IC50) (usually the concentration needed to halve the response being measured) stood at 102 nM in series [1], 98000 nM against Cytochrome P450 2C19 and 358000 nM at Cytochrome P450 2C9. Moreover, the “inhibition (INH)” value against Cytochrome P450 2D6 is “Not Active”. In addition, the values for the AUC in series [2] and in series [7] were 4620 ng·h/mL and 2320 ng·h/mL, respectively. For the same compound, the inhibition constant (Ki) (as a rule, a dissociation constant, usually derived from enzyme kinetics or from competition with a known ligand) at D(3) dopamine receptor stood at 1320 nM; on D(4) dopamine receptor it was 1420 nM; in [6], 1110 nM; at D(2) dopamine receptor it was 1310 nM. In addition, the time of peak concentration (Tmax) (usually the time from dosing to the highest level) in series [3] is 1.3 h. Also, the figures for the Activity result with Rattus norvegicus [4] and in the series with Rattus norvegicus [8] were “Dose-dependent effect” and 71%, respectively. In addition, the ED50 with Rattus norvegicus [4] (read-out: ID50 (the source's name)) was 12.5 mg/kg. Moreover, in series [5], the bioavailability (usually dose-corrected exposure relative to a reference, in per cent) worked out at 61%.

For the origin of these results see ChEMBL document CHEMBL1151947, “Synthesis, potency, and in vivo evaluation of 2-piperazin-1-ylquinoline analogues as dual serotonin reuptake inhibitors and serotonin 5-HT1A receptor antagonists” (J Med Chem, 2009).
